Data published in the supplement of paper PMC10307832.

How the values were obtained:
Experiment in all cases: relative viability (nuclei count vs DMSO), 5 days (fraction); higher = more cells survive
[1] = compound: C1=CC=C(C(=C1)C2=CC=C(C=C2)C3=CSC4=C3C(=C(C(=O)N4)C#N)O)O + CC(=O)c1c(C)c2cnc(Nc3ccc(N4CCNCC4)cn3)nc2n(C2CCCC2)c1=O [Palbociclib] (partner 0.5 µM)
Procedure, shortened: (§1)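 Relative viability is defined as nuclei in treated wells over nuclei in vehicle wells. Duplicate plates were run and medians reported. Lung cancer cell lines in 1536-well plates were dosed by pin tool one day after seeding, with one drug or with a fixed anchor-drug dose plus five library-drug doses (not always all listed) in √10 steps, and nuclei were counted after 5 days.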

[2] = compound: CC1=CN2C(=O)C=C(N=C2C(=C1)C(C)NC3=CC=CC=C3)N4CCOCC4 [TGX 221] + CC(C)C[C@H](NC(=O)[C@H](Cc1ccccc1)NC(=O)c1cnccn1)B(O)O [Bortezomib] (partner 0.002 µM)
Procedure, shortened: as §1

[3] = compound: CC1=CN2C(=O)C=C(N=C2C(=C1)C(C)NC3=CC=CC=C3)N4CCOCC4 [TGX 221] + COc1cc2c(Oc3ccc(NC(=O)C4(C(=O)Nc5ccc(F)cc5)CC4)cc3F)ccnc2cc1OCCCN1CCOCC1 [Foretinib] (partner 0.25 µM)
Procedure, shortened: as §1

[4] = compound: CC1=CN2C(=O)C=C(N=C2C(=C1)C(C)NC3=CC=CC=C3)N4CCOCC4 [TGX 221] + CS(=O)(=O)CCNCc1ccc(-c2ccc3ncnc(Nc4ccc(OCc5cccc(F)c5)c(Cl)c4)c3c2)o1 [Lapatinib] (partner 2 µM)
Procedure, shortened: as §1

| Cell Line | relative viability ([1]; first compound 0.08 µM) | relative viability ([1]; first compound 0.253 µM) | relative viability ([1]; first compound 0.8 µM) | relative viability ([1]; first compound 2.53 µM) | relative viability ([1]; first compound 8 µM) | relative viability ([2]; first compound 0.253 µM) | relative viability ([2]; first compound 0.8 µM) | relative viability ([2]; first compound 2.53 µM) | relative viability ([2]; first compound 8 µM) | relative viability ([3]; first compound 0.08 µM) | relative viability ([3]; first compound 0.253 µM) | relative viability ([3]; first compound 0.8 µM) | relative viability ([3]; first compound 2.53 µM) | relative viability ([3]; first compound 8 µM) | relative viability ([4]; first compound 0.253 µM) | relative viability ([4]; first compound 0.8 µM) | relative viability ([4]; first compound 2.53 µM) | relative viability ([4]; first compound 8 µM) | relative viability ([4]; first compound 0.08 µM) | relative viability ([2]; first compound 0.08 µM) |
| --- | --- | --- | --- | --- | --- | --- | --- | --- | --- | --- | --- | --- | --- | --- | --- | --- | --- | --- | --- | --- |
| 201T | 0.381 | 0.361 | 0.362 | 0.38 | 0.387 | 1.15 | 1.08 | 1.05 | 0.996 | 1.22 | 1.09 | 1.13 | 0.931 | 0.817 | 1.05 | 0.98 | 1.02 | 0.943 |  |  |
| A549 |  |  |  |  |  |  |  |  |  | 1.05 | 0.917 | 0.997 | 1.06 | 0.801 | 0.914 | 0.966 | 1.04 | 0.748 | 0.939 |  |
| A-427 | 0.551 | 0.535 | 0.504 | 0.553 | 0.543 | 0.99 | 0.965 | 0.942 | 0.993 | 1.15 | 0.987 | 1.12 | 1.05 | 1.06 | 0.992 | 1.01 | 0.991 | 1.05 | 0.998 | 0.954 |
| ABC-1 | 0.615 | 0.921 | 0.804 | 0.591 | 0.433 | 0.243 | 0.348 | 0.315 | 0.29 | 1.1 | 0.806 | 0.817 | 1.1 | 0.835 | 1.14 | 1.12 | 1.24 | 1.09 | 0.987 | 0.325 |
| BEN | 0.582 | 0.514 | 0.481 | 0.474 | 0.507 | 0.694 | 0.528 | 0.756 | 0.915 | 0.667 | 0.58 | 0.748 | 0.624 | 0.606 | 0.719 | 0.506 | 0.68 | 0.605 | 0.721 | 0.773 |
| CAL-12T | 0.429 | 0.62 | 0.455 | 0.405 | 0.437 | 0.952 | 0.918 |  | 1.05 | 0.994 | 1.12 | 1.27 | 1.15 | 1.09 | 0.533 | 0.576 |  | 0.621 |  |  |
| COR-L23 | 0.297 | 0.384 | 0.374 | 0.323 | 0.243 | 0.964 | 0.928 | 1.06 | 1.01 | 0.889 | 0.912 | 1.04 | 0.964 | 0.938 | 0.923 | 1.02 | 1.11 | 0.938 | 0.886 | 0.876 |
| COR-L 105 | 0.431 | 0.403 | 0.419 | 0.401 | 0.42 | 0.816 | 1.01 | 0.698 | 0.736 | 0.993 | 0.976 | 0.99 | 0.825 | 0.781 | 0.333 | 0.394 | 0.394 | 0.325 | 0.409 | 0.832 |
| Calu-6 |  |  |  |  |  | 0.973 | 1.22 | 1 | 0.896 | 0.888 | 0.8 | 0.88 | 0.923 | 0.815 | 0.916 | 1.04 | 1.17 | 0.962 | 0.929 | 1.02 |
| ChaGo-K-1 | 0.839 | 0.913 | 1.01 | 1.01 | 0.836 | 1.02 | 1.02 | 0.984 | 1.16 | 0.989 | 0.871 | 0.926 | 0.827 | 0.876 |  |  |  |  |  | 0.866 |
| EBC-1 |  |  |  |  |  | 0.51 | 0.619 | 0.4 | 0.408 | 0.0971 | 0.106 | 0.102 | 0.1 | 0.11 | 0.212 | 0.203 | 0.226 | 0.234 | 0.203 | 0.523 |
| EKVX | 0.312 | 0.365 | 0.512 | 0.793 | 0.334 | 1.11 | 0.939 | 0.985 | 0.986 | 0.691 | 0.914 | 0.763 | 0.691 | 0.925 | 0.194 | 0.213 | 0.182 | 0.19 | 0.231 | 1.02 |
| EMC-BAC-2 | 0.523 | 0.595 | 0.507 | 0.539 | 0.51 | 1.02 | 1.08 | 1.03 | 1.07 | 1.03 | 0.882 | 0.882 | 0.903 | 0.773 | 0.83 | 0.894 | 0.903 | 0.874 | 0.841 | 1.02 |
| EPLC-272H | 0.329 |  | 0.281 | 0.336 | 0.304 | 0.879 | 0.893 |  | 1 | 0.628 | 0.538 | 0.515 | 0.764 | 0.479 | 0.881 | 0.822 |  | 0.962 | 1.04 | 0.966 |
| H3255 | 0.311 | 0.346 | 0.294 | 0.31 | 0.319 | 0.732 | 0.792 | 0.776 | 0.708 | 0.88 | 0.762 | 0.844 | 0.852 | 0.868 | 0.225 | 0.24 | 0.277 | 0.211 | 0.301 | 0.685 |
| HARA | 0.228 | 0.211 | 0.218 | 0.234 | 0.279 | 1.07 | 1.05 | 1.09 | 1.2 | 0.703 | 0.71 | 0.904 | 0.849 | 0.667 | 0.722 | 0.707 | 0.662 | 0.766 | 0.788 | 1.13 |
| HCC-15 | 0.786 | 0.867 | 0.766 | 0.897 | 0.617 | 0.953 | 0.93 | 1.04 | 1.06 | 0.993 | 0.964 | 1 | 0.973 | 1 | 0.8 | 0.821 | 0.823 | 0.861 | 0.842 | 1.02 |
| HCC-44 | 1.08 | 1.05 | 0.995 | 0.979 | 0.964 | 0.935 | 0.945 | 0.851 | 0.997 |  |  |  |  |  | 0.982 | 0.975 | 0.984 | 1.05 | 1 | 0.951 |
